Measurements taken from US9568483B2, “Molecular subtyping, prognosis and treatment of prostate cancer” (CORNELL UNIVERSITY, priority 2011, dated 2017).
Entries after “also recorded” stand apart in the source; their conditions may differ.

What was measured:
[1] = tested on: LNCaP xenografts; experiment: LNCaP xenograft study; assay type: in vivo, NU/J mice
Procedure: (§1) Drug Treatment. PHA-739358 was obtained from Nerviano Medical Sciences (Milan, Italy) in powder form (MW 414.36). Prostate cell lines for this study were obtained from the American Type Culture Collection (Manassas, Va.). RWPE (20×10^3 per well), NCI-H660 (20×10^3), DU145 (5×10^3 per well), VCaP (20×10^3 per well) and LNCaP (1.5×10^4 per well) cells were seeded on 96-well-tissue culture plates. At 24 hours, cell lines were treated with vehicle (0.5% DMSO) or escalating doses of PHA-739358 (5 nM, 50 nM, 100 nM, 500 nM, 1 uM, 5 uM). At 48 hr, 72 h, 96 h, and 120 h, viability was assessed by performing WST-1 assay (Roche, Indianapolis, Ind.) reading absorbance at 450 nm according to the manufacturer's instructions. Xenografts were prepared by injection of 1 million NCI-H660 cells, VCaP cells, or LNCaP cells into NU/J mice (Jackson Laboratories, Bar Harbor, Me.). […] Mice were sacrificed on day 17, and tumors were evaluated for weight, gross pathology, histology, and IHC. […]
(§2) Immunohistochemistry (IHC). […] IHC was quantified on scale 0-3 and overexpression was defined as any staining intensity seen of target cells above background (similar methodology as was used in PARK et al., Neoplasia, 12:590-8 (2010)).
(§3) Xenografts. […] Mice were sacrificed on day 17, and tumors were evaluated for weight, gross pathology, histology, and IHC. […]

[2] = tested on: VCaP xenografts; experiment: VCaP xenograft study; assay type: in vivo, NU/J mice; details: 30 mg/kg intraperitoneal, days 1-5
Procedure: as §1, with “Me.). LTL-362 xenografts were established at BC Cancer Center Living Tumor Laboratory as previously described (TUNG et al., Prostate (2010)).” for “Me.).”
(§4) Xenografts. […] Mice were sacrificed on day 17, and tumors were evaluated for weight, gross pathology, histology, and IHC. […] Analysis was performed using LivingImage software (Xenogen) by measurement of the average photon flux (measured in photons/s/cm2/steradian) within a region of interest.

[3] = tested on: LNCaP-MYCN cells; experiment: Cell cycle FACS analysis, LNCaP-MYCN; assay type: cell-based; details: 48 hrs treatment
Procedure: (§5) Cell Cycle Analysis. Cells were treated with PHA-739358 for 48 hrs. After treatment, cells were washed with cold PBS and fixed in 70% EtOH at −20° C. overnight. Cells were washed and suspended in 500 μl PBS containing 0.1% Triton X-100, 20 μg/ml Propidium Iodide (PI) and 200 μg/ml RNase A, incubated for 30 min at room temperature and subjected to FACS analysis using a LSR II Analyzer (BD Biosciences).

[4] = tested on: NCI-H660 cells; experiment: WST-1 viability assay, NCI-H660; assay type: cell-based, human; details: compared to two PCA cell lines (DU145, VCaP) and benign RWPE-1 cells; 72 hours; FIG. 4B
Procedure: as §1, with “Me.). LTL-362 xenografts were established at BC Cancer Center Living Tumor Laboratory as previously described (TUNG et al., Prostate (2010)). 3×3×2 […] tissue fragments were subcutaneously engrafted into fourteen 6-8 week old NOD/SCID mice. All xenograft tumors were allowed to grow to an average tumor […] of 100 mm^3.” for “Me.).”

[5] = tested on: LNCaP-n-Myc cells; experiment: WST-1 viability assay, LNCaP cells stably transfected with MYCN; assay type: cell-based; details: compared to control LNCaP cells (LNCaP-EV); 72 hours; FIG. 4A
Procedure: as §1, with “Me.). LTL-362 xenografts were established at BC Cancer Center Living Tumor Laboratory as previously described (TUNG et al., Prostate (2010)). 3×3×2 […] tissue fragments were subcutaneously engrafted into fourteen 6-8 week old NOD/SCID mice. All xenograft tumors were allowed to grow to an average tumor […] of 100 mm^3.” for “Me.).”

[6] = tested on: LNCaP cells; experiment: Cell cycle FACS analysis, LNCaP; assay type: cell-based; details: 48 hrs treatment
Procedure: as §5

[7] = mouse, in vivo, ip, 30 mg/kg
Procedure: as §1, with “Me.). LTL-362 xenografts were established at BC Cancer Center Living Tumor Laboratory as previously described (TUNG et al., Prostate (2010)).” for “Me.).”
as §4

[8] = tested on: NCI-H660 cells; experiment: Cell cycle FACS analysis, NCI-H660; assay type: cell-based, human; details: 48 hrs treatment
Procedure: as §5

[9] = tested on: LTL-352 xenograft; experiment: LTL-352 xenograft study; assay type: in vivo, NOD/SCID mice; details: LTL-352 xenografts; 30 mg/kg IP BID, 5 days; P<0.001
Procedure: as §1, with “Me.). LTL-362 xenografts were established at BC Cancer Center Living Tumor Laboratory as previously described (TUNG et al., Prostate (2010)).” for “Me.).”
as §4

[10] = tested on: NCI-H660 xenografts; experiment: NCI-H660 xenograft study; assay type: in vivo, NU/J mice
Procedure: Drug Treatment. PHA-739358 was obtained from Nerviano Medical Sciences (Milan, Italy) in powder form (MW 414.36). Prostate cell lines for this study were obtained from the American Type Culture Collection (Manassas, Va.). RWPE (20×10^3 per well), NCI-H660 (20×10^3), DU145 (5×10^3 per well), VCaP (20×10^3 per well) and LNCaP (1.5×10^4 per well) cells were seeded on 96-well-tissue culture plates. At 24 hours, cell lines were treated with vehicle (0.5% DMSO) or escalating doses of PHA-739358 (5 nM, 50 nM, 100 nM, 500 nM, 1 uM, 5 uM). At 48 hr, 72 h, 96 h, and 120 h, viability was assessed by performing WST-1 assay (Roche, Indianapolis, Ind.) reading absorbance at 450 nm according to the manufacturer's instructions. Xenografts were prepared by injection of 1 million NCI-H660 cells, VCaP cells, or LNCaP cells into NU/J mice (Jackson Laboratories, Bar Harbor, Me.). LTL-362 xenografts were established at BC Cancer Center Living Tumor Laboratory as previously described (TUNG et al., Prostate (2010)). 3×3×2 […] tissue fragments were subcutaneously engrafted into fourteen 6-8 week old NOD/SCID mice. All xenograft tumors were allowed to grow to an average tumor […] of 100 mm^3. 20 LNCaP, 20 VCaP, 40 NCI-H660, 14 LTL-362 mice were randomized to treatment with PHA-739358 at 30 mg/kg intraperitoneal dosing on days 1-5 or vehicle. Body weight, tumor volume based on caliper measurements ([…]) and luciferase imaging were performed every 3 or 4 days after treatment. Mice were sacrificed on day 17, and tumors were evaluated for weight, gross pathology, histology, and IHC. Three tumors were processed during treatment (on day 4) to evaluate for phosphorylated histone 3 expression by IHC.
as §2, §3

CO[C@@H](C(=O)N1Cc2n[nH]c(NC(=O)c3ccc(N4CCN(C)CC4)cc3)c2C1)c1ccccc1 [PHA-739358]
effect on tumor size ([1]; LNCaP xenografts, 30 mg/kg IP BID, 5 days): no effect | Phosphorylated histone 3 expression (IHC) ([1]; treated LNCaP xenografts, day 4 of treatment): not in the LNCaP xenografts | effect on tumor size [2]: cytostatic effect | Polyploidy [3]: induced | G2/M arrest ([3]; FIG. 5): dose dependent G2/M arrest | sensitivity (viability) [4]: enhanced sensitivity | in vitro sensitivity (viability) [5]: enhanced in vitro sensitivity | Polyploidy [6]: induced | G2/M arrest ([6]; FIG. 5): dose dependent G2/M arrest | toxicity as determined by body weight [7]: without significant toxicity | Polyploidy [8]: induced | G2/M arrest ([8]; FIG. 5): no significant G2/M arrest | average tumor shrinkage [9]: 50-87% | average tumor shrinkage ([10]; NCI-H660 xenografts, 30 mg/kg IP BID, 5 days, P<0.001): 50-87% | SYP (synaptophysin) expression (IHC) ([10]; treated NCI-H660 xenografts, FIG. 4F): negative; also recorded: completely suppressed | Phosphorylated histone 3 expression (IHC) ([10]; treated NCI-H660 xenografts, day 4 of treatment): significantly inhibited
